According to PubChem BioAssay AID1963841 (Molecular Pharmacology Branch, DTP, NCI, 2024):

Tested on: 439559-082-T-J2-PDC spheroid viability
Test: Anticancer human tumor 439559-082-T-J2-PDC patient-derived colon adenocarcinoma cell line growth inhibition [POLQ]
Conditions: spheroids with HUVEC and MSC; for IC50: curve of first compound; for viability, T/C: stronger effect = lower value
Procedure, shortened: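 Three-cell-type spheroids modelling solid tumor plus stroma served as the readout system; POL inhibitors were tested individually and in combination, concentration ranges set by clinical Cmax where known.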
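Also: spheroids exposed to compounds for seven days before readout.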
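For viability, T/C in this document: 100% = DMSO vehicle control viability.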

Compound `O=C(Nc1ccc(O)c(NS(=O)(=O)c2ccc(F)cc2)c1)c1ccc(-c2ccccc2)cc1` + COC1C(OC(N)=O)C(O)C(Oc2ccc3c(O)c(NC(=O)c4ccc(O)c(CC=C(C)C)c4)c(=O)oc3c2C)OC1(C)C has an IC50 (second compound 0.0316 µM) greater than 10000 nM, an IC50 (second compound 0.1 µM) greater than 10000 nM and an IC50 (second compound 0.316 µM) greater than 10000 nM. The IC50 (second compound 1 µM) was greater than 10000 nM, the IC50 (second compound 3.16 µM) was greater than 10000 nM and the IC50 (second compound 10 µM) was greater than 10000 nM. For the same compound, the viability, T/C (second compound 0.0316 µM, first compound 0.0316 µM) was 93.1%, the viability, T/C (second compound 0.0316 µM, first compound 0.1 µM) was 94.8% and the viability, T/C (second compound 0.0316 µM, first compound 0.316 µM) was 94.1%. It also gave a viability, T/C (second compound 0.0316 µM, first compound 1 µM) of 97.9%, a viability, T/C (second compound 0.0316 µM, first compound 3.16 µM) of 106% and a viability, T/C (second compound 0.0316 µM, first compound 10 µM) of 101%. It also gave a viability, T/C (second compound 0.1 µM, first compound 0.0316 µM) of 98.8%, a viability, T/C (second compound 0.1 µM, first compound 0.1 µM) of 99.4% and a viability, T/C (second compound 0.1 µM, first compound 0.316 µM) of 102%. The viability, T/C (second compound 0.1 µM, first compound 1 µM) was 107%, the viability, T/C (second compound 0.1 µM, first compound 3.16 µM) was 103% and the viability, T/C (second compound 0.1 µM, first compound 10 µM) was 97.3%. For the same compound, the viability, T/C (second compound 0.316 µM, first compound 0.0316 µM) was 99.3%, the viability, T/C (second compound 0.316 µM, first compound 0.1 µM) was 99.9% and the viability, T/C (second compound 0.316 µM, first compound 0.316 µM) was 99.8%. For the same compound, the viability, T/C (second compound 0.316 µM, first compound 1 µM) was 97%, the viability, T/C (second compound 0.316 µM, first compound 3.16 µM) was 104% and the viability, T/C (second compound 0.316 µM, first compound 10 µM) was 102%. The viability, T/C (second compound 1 µM, first compound 0.0316 µM) was 102%, the viability, T/C (second compound 1 µM, first compound 0.1 µM) was 98.4% and the viability, T/C (second compound 1 µM, first compound 0.316 µM) was 93.5%. The viability, T/C (second compound 1 µM, first compound 1 µM) was 103%, the viability, T/C (second compound 1 µM, first compound 3.16 µM) was 104% and the viability, T/C (second compound 1 µM, first compound 10 µM) was 89.8%. The viability, T/C (second compound 3.16 µM, first compound 0.0316 µM) was 107%, the viability, T/C (second compound 3.16 µM, first compound 0.1 µM) was 93.2% and the viability, T/C (second compound 3.16 µM, first compound 0.316 µM) was 92.3%. The viability, T/C (second compound 3.16 µM, first compound 1 µM) was 96.5%, the viability, T/C (second compound 3.16 µM, first compound 3.16 µM) was 99.8% and the viability, T/C (second compound 3.16 µM, first compound 10 µM) was 98.3%. For the same compound, the viability, T/C (second compound 10 µM, first compound 0.0316 µM) was 97.2%, the viability, T/C (second compound 10 µM, first compound 0.1 µM) was 98.7% and the viability, T/C (second compound 10 µM, first compound 0.316 µM) was 102%. It also gave a viability, T/C (second compound 10 µM, first compound 1 µM) of 103%, a viability, T/C (second compound 10 µM, first compound 3.16 µM) of 101% and a viability, T/C (second compound 10 µM, first compound 10 µM) of 104%.

With `CC(=O)O[C@H]1C(=O)[C@@]2(C)[C@H]([C@H](OC(=O)c3ccccc3)[C@]3(O)C[C@H](OC(=O)[C@H](O)[C@@H](NC(=O)c4ccccc4)c4ccccc4)C(C)=C1C3(C)C)[C@]1(OC(C)=O)CO[C@@H]1C[C@@H]2O` + Nc1ccc(C#CCN(C(=O)Cc2ncc(C(F)(F)F)cc2C(F)(F)F)c2ccc(F)cc2)nn1 the IC50 (second compound 0.0316 µM) was 730 nM, the IC50 (second compound 0.1 µM) was 1250 nM and the IC50 (second compound 0.316 µM) was 807 nM. It also gave an IC50 (second compound 1 µM) of 898 nM, an IC50 (second compound 3.16 µM) of 511 nM and an IC50 (second compound 10 µM) of 363 nM. For the same compound, the viability, T/C (second compound 0.0316 µM, first compound 0.00949 µM) was 51.6%, the viability, T/C (second compound 0.0316 µM, first compound 0.03 µM) was 54.9% and the viability, T/C (second compound 0.0316 µM, first compound 0.0949 µM) was 75.6%. For the same compound, the viability, T/C (second compound 0.0316 µM, first compound 0.3 µM) was 77.2%, the viability, T/C (second compound 0.0316 µM, first compound 0.949 µM) was 45.6% and the viability, T/C (second compound 0.0316 µM, first compound 3 µM) was 22.1%. It also gave a viability, T/C (second compound 0.1 µM, first compound 0.00949 µM) of 53%, a viability, T/C (second compound 0.1 µM, first compound 0.03 µM) of 53.8% and a viability, T/C (second compound 0.1 µM, first compound 0.0949 µM) of 72.7%. For the same compound, the viability, T/C (second compound 0.1 µM, first compound 0.3 µM) was 77.3%, the viability, T/C (second compound 0.1 µM, first compound 0.949 µM) was 53.2% and the viability, T/C (second compound 0.1 µM, first compound 3 µM) was 25.8%. For the same compound, the viability, T/C (second compound 0.316 µM, first compound 0.00949 µM) was 54%, the viability, T/C (second compound 0.316 µM, first compound 0.03 µM) was 58.5% and the viability, T/C (second compound 0.316 µM, first compound 0.0949 µM) was 79.9%. For the same compound, the viability, T/C (second compound 0.316 µM, first compound 0.3 µM) was 78.7%, the viability, T/C (second compound 0.316 µM, first compound 0.949 µM) was 47.1% and the viability, T/C (second compound 0.316 µM, first compound 3 µM) was 18.9%. It also gave a viability, T/C (second compound 1 µM, first compound 0.00949 µM) of 46.2%, a viability, T/C (second compound 1 µM, first compound 0.03 µM) of 56.7% and a viability, T/C (second compound 1 µM, first compound 0.0949 µM) of 82.3%. The viability, T/C (second compound 1 µM, first compound 0.3 µM) was 79.8%, the viability, T/C (second compound 1 µM, first compound 0.949 µM) was 49.2% and the viability, T/C (second compound 1 µM, first compound 3 µM) was 19%. It also gave a viability, T/C (second compound 3.16 µM, first compound 0.00949 µM) of 37.2%, a viability, T/C (second compound 3.16 µM, first compound 0.03 µM) of 53.5% and a viability, T/C (second compound 3.16 µM, first compound 0.0949 µM) of 81.9%. The viability, T/C (second compound 3.16 µM, first compound 0.3 µM) was 69%, the viability, T/C (second compound 3.16 µM, first compound 0.949 µM) was 37.9% and the viability, T/C (second compound 3.16 µM, first compound 3 µM) was 19.5%. For the same compound, the viability, T/C (second compound 10 µM, first compound 0.00949 µM) was 42.8%, the viability, T/C (second compound 10 µM, first compound 0.03 µM) was 48% and the viability, T/C (second compound 10 µM, first compound 0.0949 µM) was 68.8%. The viability, T/C (second compound 10 µM, first compound 0.3 µM) was 51.7%, the viability, T/C (second compound 10 µM, first compound 0.949 µM) was 38% and the viability, T/C (second compound 10 µM, first compound 3 µM) was 21.9%.
